ChEMBL document CHEMBL4507317, “Data for DCP probe BAY-899” (2021)

Tests used:
[1] = target: Sigma non-opioid intracellular receptor 1 (Homo sapiens, UniProt Q99720); assay: GPCRScan assay: inhibition of Sigma 1; set-up: radioligand conc. used [nm] 4.0 – 5.0, parental cells HEKT
[2] = test system: Tyrosine-protein kinase ABL1 (Homo sapiens), P00519 [T315I]; settings: Compound concentration 1000.0 nM
[3] = test system: ALK tyrosine kinase receptor (Homo sapiens), Q9UM73 [L1196M]; settings: Compound concentration 1000.0 nM
[4] = target: 5'-AMP-activated protein kinase catalytic subunit alpha-1 (Homo sapiens) (UniProt Q13131); settings: Compound concentration 1000.0 nM
[5] = target: Tyrosine-protein kinase receptor UFO (Homo sapiens) (UniProt P30530); settings: Compound concentration 1000.0 nM
[6] = target: Tyrosine-protein kinase Blk (Homo sapiens) (UniProt P51451); settings: Compound concentration 1000.0 nM
[7] = target: Calcium/calmodulin-dependent protein kinase type IV (Homo sapiens) (UniProt Q16566); settings: Compound concentration 1000.0 nM
[8] = target: Cyclin-dependent kinase-like 1 (Homo sapiens) (UniProt Q00532); settings: Compound concentration 1000.0 nM
[9] = target: Cyclin-dependent kinase-like 5 (Homo sapiens) (UniProt O76039); settings: Compound concentration 1000.0 nM
[10] = target: Macrophage colony-stimulating factor 1 receptor (Homo sapiens) (UniProt P07333); settings: Compound concentration 1000.0 nM
[11] = target: Casein kinase I isoform delta (Homo sapiens) (UniProt P48730); settings: Compound concentration 1000.0 nM
[12] = target: Epithelial discoidin domain-containing receptor 1 (Homo sapiens) (UniProt Q08345); settings: Compound concentration 1000.0 nM
[13] = test system: Epidermal growth factor receptor (Homo sapiens), P00533 [G719C]; settings: Compound concentration 1000.0 nM
[14] = target: Fibroblast growth factor receptor 1 (Homo sapiens) (UniProt P11362); settings: Compound concentration 1000.0 nM
[15] = target: Tyrosine-protein kinase Fgr (Homo sapiens) (UniProt P09769); settings: Compound concentration 1000.0 nM
[16] = target: Serine/threonine-protein kinase ICK (Homo sapiens) (UniProt Q9UPZ9); settings: Compound concentration 1000.0 nM
[17] = target: Inhibitor of nuclear factor kappa-B kinase subunit alpha (Homo sapiens) (UniProt O15111); settings: Compound concentration 1000.0 nM
[18] = target: Interleukin-1 receptor-associated kinase 4 (Homo sapiens) (UniProt Q9NWZ3); settings: Compound concentration 1000.0 nM
[19] = target: Tyrosine-protein kinase JAK1 (Homo sapiens) (UniProt P23458); settings: Compound concentration 1000.0 nM
[20] = target: Mitogen-activated protein kinase 9 (Homo sapiens) (UniProt P45984); settings: Compound concentration 1000.0 nM
[21] = test system: Mast/stem cell growth factor receptor Kit (Homo sapiens), P10721 [A829P]; settings: Compound concentration 1000.0 nM
[22] = test system: Leucine-rich repeat serine/threonine-protein kinase 2 (Homo sapiens), Q5S007 [G2019S]; settings: Compound concentration 1000.0 nM
[23] = target: Mitogen-activated protein kinase kinase kinase kinase 5 (Homo sapiens) (UniProt Q9Y4K4); settings: Compound concentration 1000.0 nM
[24] = target: Dual specificity mitogen-activated protein kinase kinase 6 (Homo sapiens) (UniProt P52564); settings: Compound concentration 1000.0 nM
[25] = target: Maternal embryonic leucine zipper kinase (Homo sapiens) (UniProt Q14680); settings: Compound concentration 1000.0 nM
[26] = target: Mitogen-activated protein kinase kinase kinase 10 (Homo sapiens) (UniProt Q02779); settings: Compound concentration 1000.0 nM
[27] = target: Serine/threonine-protein kinase 4 (Homo sapiens) (UniProt Q13043); settings: Compound concentration 1000.0 nM
[28] = target: Macrophage-stimulating protein receptor (Homo sapiens) (UniProt Q04912); settings: Compound concentration 1000.0 nM
[29] = target: Muscle, skeletal receptor tyrosine-protein kinase (Homo sapiens) (UniProt O15146); settings: Compound concentration 1000.0 nM
[30] = target: Serine/threonine-protein kinase 38-like (Homo sapiens) (UniProt Q9Y2H1); settings: Compound concentration 1000.0 nM
[31] = target: Serine/threonine-protein kinase Nek10 (Homo sapiens) (UniProt Q6ZWH5); settings: Compound concentration 1000.0 nM
[32] = target: Serine/threonine-protein kinase OSR1 (Homo sapiens) (UniProt O95747); settings: Compound concentration 1000.0 nM
[33] = target: Mitogen-activated protein kinase 11 (Homo sapiens) (UniProt Q15759); settings: Compound concentration 1000.0 nM
[34] = target: Serine/threonine-protein kinase pim-2 (Homo sapiens) (UniProt Q9P1W9); settings: Compound concentration 1000.0 nM
[35] = target: Dual serine/threonine and tyrosine protein kinase (Homo sapiens) (UniProt Q6XUX3); settings: Compound concentration 1000.0 nM
[36] = target: Serine/threonine-protein kinase SBK1 (Homo sapiens) (UniProt Q52WX2); settings: Compound concentration 1000.0 nM
[37] = target: Serine/threonine-protein kinase Sgk1 (Homo sapiens) (UniProt O00141); settings: Compound concentration 1000.0 nM
[38] = target: Serine/threonine-protein kinase Sgk3 (Homo sapiens) (UniProt Q96BR1); settings: Compound concentration 1000.0 nM
[39] = target: Serine/threonine-protein kinase 36 (Homo sapiens) (UniProt Q9NRP7); settings: Compound concentration 1000.0 nM
[40] = target: Phosphatidylinositol 3-kinase catalytic subunit type 3 (Homo sapiens) (UniProt Q8NEB9); settings: Compound concentration 1000.0 nM
[41] = target: Serine/threonine-protein kinase WNK3 (Homo sapiens) (UniProt Q9BYP7); settings: Compound concentration 1000.0 nM
[42] = target: Serine/threonine-protein kinase WNK4 (Homo sapiens) (UniProt Q96J92); settings: Compound concentration 1000.0 nM
[43] = target: Serine/threonine-protein kinase 32A (Homo sapiens) (UniProt Q8WU08); settings: Compound concentration 1000.0 nM
[44] = target: Sodium-dependent serotonin transporter (Homo sapiens) (UniProt P31645); settings: Compound concentration 10.0 uM
[45] = target: Alpha-1D adrenergic receptor (Homo sapiens) (UniProt P25100); settings: Compound concentration 10.0 uM

Sequence of Serine/threonine-protein kinase WNK4 (Homo sapiens) (Q96J92 whole entry): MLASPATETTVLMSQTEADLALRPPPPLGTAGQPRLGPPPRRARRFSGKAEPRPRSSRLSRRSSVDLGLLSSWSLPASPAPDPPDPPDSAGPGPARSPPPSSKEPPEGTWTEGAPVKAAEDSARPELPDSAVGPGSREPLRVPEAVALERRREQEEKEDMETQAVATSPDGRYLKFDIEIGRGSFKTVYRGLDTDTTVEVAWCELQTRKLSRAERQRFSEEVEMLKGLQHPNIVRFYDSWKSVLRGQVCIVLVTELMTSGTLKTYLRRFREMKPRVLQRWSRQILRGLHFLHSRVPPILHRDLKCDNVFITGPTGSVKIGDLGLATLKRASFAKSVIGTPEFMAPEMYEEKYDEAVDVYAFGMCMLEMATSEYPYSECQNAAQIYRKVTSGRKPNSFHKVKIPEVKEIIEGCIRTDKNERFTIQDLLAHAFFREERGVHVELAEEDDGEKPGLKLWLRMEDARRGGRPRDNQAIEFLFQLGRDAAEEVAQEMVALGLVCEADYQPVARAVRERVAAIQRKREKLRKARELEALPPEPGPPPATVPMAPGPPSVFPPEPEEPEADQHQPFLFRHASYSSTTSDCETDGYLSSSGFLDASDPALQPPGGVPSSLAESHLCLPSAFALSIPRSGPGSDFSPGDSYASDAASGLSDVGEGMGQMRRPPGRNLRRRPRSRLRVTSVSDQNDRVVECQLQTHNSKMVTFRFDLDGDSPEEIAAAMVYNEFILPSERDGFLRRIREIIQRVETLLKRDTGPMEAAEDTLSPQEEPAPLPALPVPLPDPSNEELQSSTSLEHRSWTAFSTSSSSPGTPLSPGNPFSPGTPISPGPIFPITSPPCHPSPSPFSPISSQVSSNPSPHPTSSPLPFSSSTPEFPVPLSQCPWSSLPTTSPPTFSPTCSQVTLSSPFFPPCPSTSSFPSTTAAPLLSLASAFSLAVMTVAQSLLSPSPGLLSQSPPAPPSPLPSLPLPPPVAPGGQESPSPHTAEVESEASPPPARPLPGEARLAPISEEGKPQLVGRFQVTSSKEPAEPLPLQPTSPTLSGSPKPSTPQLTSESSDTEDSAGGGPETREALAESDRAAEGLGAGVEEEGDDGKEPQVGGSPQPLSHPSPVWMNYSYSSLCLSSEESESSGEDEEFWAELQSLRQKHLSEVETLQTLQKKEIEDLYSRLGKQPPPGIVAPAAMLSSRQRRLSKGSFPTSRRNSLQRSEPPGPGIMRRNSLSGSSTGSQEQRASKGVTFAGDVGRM
Sequence of Serine/threonine-protein kinase Sgk1 (Homo sapiens) (O00141 whole entry): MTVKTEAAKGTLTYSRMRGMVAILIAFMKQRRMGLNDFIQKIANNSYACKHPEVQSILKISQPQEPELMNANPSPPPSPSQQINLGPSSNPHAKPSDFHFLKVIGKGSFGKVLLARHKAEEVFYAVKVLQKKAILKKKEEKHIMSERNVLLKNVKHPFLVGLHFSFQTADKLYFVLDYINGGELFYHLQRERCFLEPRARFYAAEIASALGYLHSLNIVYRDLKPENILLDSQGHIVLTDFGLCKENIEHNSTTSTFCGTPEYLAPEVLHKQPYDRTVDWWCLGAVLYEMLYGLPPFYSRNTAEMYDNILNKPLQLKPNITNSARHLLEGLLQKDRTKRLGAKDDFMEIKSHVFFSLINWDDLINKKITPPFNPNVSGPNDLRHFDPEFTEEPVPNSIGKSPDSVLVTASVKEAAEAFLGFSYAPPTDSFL
Sequence of Fibroblast growth factor receptor 1 (Homo sapiens) (P11362 22-822 limits assumed): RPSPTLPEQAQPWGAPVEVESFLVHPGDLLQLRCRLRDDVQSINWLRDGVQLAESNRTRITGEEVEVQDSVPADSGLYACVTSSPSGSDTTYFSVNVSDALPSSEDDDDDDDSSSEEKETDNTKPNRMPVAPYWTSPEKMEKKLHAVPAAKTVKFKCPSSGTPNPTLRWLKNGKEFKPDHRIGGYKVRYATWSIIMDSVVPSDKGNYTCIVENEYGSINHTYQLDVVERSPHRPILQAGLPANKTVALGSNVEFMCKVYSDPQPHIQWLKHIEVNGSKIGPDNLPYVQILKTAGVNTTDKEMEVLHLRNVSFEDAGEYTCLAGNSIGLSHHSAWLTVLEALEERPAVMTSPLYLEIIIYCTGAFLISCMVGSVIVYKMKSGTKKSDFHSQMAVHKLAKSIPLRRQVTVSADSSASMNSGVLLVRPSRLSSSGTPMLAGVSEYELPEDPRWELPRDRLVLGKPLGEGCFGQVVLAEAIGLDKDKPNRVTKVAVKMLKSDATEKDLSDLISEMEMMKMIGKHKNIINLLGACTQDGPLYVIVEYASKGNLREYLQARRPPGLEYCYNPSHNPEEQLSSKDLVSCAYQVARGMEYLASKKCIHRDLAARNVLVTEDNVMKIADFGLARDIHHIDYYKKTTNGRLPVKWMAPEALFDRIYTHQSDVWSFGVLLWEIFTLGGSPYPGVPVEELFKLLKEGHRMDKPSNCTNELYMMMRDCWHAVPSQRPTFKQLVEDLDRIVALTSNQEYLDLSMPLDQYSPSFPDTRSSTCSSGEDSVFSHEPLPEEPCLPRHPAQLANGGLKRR
Sequence of Dual specificity mitogen-activated protein kinase kinase 6 (Homo sapiens) (P52564 whole entry): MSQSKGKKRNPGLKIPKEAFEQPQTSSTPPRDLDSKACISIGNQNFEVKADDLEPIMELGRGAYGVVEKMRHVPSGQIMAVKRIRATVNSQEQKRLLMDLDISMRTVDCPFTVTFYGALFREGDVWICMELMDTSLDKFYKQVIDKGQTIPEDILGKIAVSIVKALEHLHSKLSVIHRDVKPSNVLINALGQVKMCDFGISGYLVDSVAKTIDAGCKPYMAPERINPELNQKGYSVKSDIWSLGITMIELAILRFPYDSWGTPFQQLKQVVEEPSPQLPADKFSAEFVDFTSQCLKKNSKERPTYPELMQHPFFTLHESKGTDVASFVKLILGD
Sequence of Serine/threonine-protein kinase OSR1 (Homo sapiens) (O95747 2-527 limits assumed): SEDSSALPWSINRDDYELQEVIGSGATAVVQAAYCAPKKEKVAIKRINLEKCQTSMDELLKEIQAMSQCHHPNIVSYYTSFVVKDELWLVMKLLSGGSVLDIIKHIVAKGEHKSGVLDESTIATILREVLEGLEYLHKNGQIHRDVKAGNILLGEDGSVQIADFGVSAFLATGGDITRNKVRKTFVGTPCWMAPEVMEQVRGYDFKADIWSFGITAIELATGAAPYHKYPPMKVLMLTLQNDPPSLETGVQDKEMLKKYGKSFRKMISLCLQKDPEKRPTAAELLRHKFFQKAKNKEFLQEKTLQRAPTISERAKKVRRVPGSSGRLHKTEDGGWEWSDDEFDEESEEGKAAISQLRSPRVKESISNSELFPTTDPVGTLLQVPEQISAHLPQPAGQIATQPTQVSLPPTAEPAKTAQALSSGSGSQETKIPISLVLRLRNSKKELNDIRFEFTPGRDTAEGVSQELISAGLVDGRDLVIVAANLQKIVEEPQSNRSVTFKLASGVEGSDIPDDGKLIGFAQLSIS
Sequence of Serine/threonine-protein kinase 36 (Homo sapiens) (Q9NRP7 whole entry): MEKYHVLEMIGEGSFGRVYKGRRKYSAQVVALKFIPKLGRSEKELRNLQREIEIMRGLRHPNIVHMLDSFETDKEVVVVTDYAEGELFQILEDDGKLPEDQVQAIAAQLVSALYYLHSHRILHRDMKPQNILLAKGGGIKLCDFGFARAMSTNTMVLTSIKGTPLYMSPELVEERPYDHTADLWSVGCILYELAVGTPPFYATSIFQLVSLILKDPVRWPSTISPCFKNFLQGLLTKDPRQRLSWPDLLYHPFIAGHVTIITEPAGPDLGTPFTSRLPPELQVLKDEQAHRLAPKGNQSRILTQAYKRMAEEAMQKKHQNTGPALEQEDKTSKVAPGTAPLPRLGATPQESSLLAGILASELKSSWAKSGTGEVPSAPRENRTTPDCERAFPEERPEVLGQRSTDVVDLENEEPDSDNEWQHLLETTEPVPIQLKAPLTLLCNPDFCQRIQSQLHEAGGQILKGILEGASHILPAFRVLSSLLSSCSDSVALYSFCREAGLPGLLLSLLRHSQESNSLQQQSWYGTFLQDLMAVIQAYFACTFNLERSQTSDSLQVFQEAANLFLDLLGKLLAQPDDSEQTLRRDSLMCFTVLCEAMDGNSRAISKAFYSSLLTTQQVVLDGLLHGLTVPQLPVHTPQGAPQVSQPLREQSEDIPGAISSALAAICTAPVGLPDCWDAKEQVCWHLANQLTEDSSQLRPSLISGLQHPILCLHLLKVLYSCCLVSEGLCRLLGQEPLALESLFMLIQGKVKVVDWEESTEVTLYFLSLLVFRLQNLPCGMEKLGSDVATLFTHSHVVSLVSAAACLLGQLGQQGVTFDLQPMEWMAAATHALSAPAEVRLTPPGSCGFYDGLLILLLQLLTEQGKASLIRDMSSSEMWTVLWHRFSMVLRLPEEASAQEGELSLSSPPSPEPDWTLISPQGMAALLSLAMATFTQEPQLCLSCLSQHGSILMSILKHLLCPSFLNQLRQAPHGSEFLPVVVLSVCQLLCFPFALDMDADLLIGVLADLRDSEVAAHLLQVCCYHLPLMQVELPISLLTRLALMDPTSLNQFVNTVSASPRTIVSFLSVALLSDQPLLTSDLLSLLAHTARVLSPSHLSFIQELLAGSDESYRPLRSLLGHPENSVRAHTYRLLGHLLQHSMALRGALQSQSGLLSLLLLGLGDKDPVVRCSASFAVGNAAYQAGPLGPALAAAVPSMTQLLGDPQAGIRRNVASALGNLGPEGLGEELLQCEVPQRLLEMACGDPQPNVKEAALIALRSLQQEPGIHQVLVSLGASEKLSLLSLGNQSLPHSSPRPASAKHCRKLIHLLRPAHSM
Sequence of Serine/threonine-protein kinase SBK1 (Homo sapiens) (Q52WX2 whole entry): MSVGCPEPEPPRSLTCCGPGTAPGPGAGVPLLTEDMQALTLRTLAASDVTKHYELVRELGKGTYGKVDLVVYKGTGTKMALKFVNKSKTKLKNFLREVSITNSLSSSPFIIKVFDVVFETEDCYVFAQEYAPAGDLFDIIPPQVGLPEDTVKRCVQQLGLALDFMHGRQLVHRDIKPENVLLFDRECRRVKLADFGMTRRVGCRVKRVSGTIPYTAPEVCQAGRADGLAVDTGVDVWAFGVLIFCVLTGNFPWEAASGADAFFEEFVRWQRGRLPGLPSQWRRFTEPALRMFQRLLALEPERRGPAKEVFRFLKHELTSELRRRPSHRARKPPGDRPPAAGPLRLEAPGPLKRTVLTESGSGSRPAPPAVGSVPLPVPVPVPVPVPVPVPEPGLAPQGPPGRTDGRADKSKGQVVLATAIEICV

O=C(Nc1cnc(Oc2ccc(F)cc2)nc1)N1CCc2ncccc2[C@@H]1c1ccc(F)cc1 [BAY-899]
Ki [1]: 1.43 µM | residual activity [2]: 77% | residual activity [3]: 100% | residual activity [4]: 88% | residual activity [5]: 76% | residual activity [6]: 80% | residual activity [7]: 97% | residual activity [8]: 100% | residual activity [9]: 89% | residual activity [10]: 78% | residual activity [11]: 100% | residual activity [12]: 95% | residual activity [13]: 76% | residual activity [14]: 82% | residual activity [15]: 100% | residual activity [16]: 92% | residual activity [17]: 100% | residual activity [18]: 95% | residual activity [19]: 96% | residual activity [20]: 85% | residual activity [21]: 100% | residual activity [22]: 100% | residual activity [23]: 77% | residual activity [24]: 77% | residual activity [25]: 66% | residual activity [26]: 77% | residual activity [27]: 100% | residual activity [28]: 100% | residual activity [29]: 86% | residual activity [30]: 75% | residual activity [31]: 100% | residual activity [32]: 93% | residual activity [33]: 84% | residual activity [34]: 94% | residual activity [35]: 100% | residual activity [36]: 100% | residual activity [37]: 75% | residual activity [38]: 100% | residual activity [39]: 91% | residual activity [40]: 100% | residual activity [41]: 93% | residual activity [42]: 81% | residual activity [43]: 100% | inhibition [44]: 25.5% | inhibition [45]: 8.01%

O=C(Nc1ccc(Oc2ccc(F)cc2)cc1)N1CCc2ncccc2[C@H]1c1ccc(F)cc1 [BAY-897]
Ki [1]: 2.4 µM | residual activity [2]: 85% | residual activity [3]: 100% | residual activity [4]: 96% | residual activity [5]: 77% | residual activity [6]: 90% | residual activity [7]: 86% | residual activity [8]: 97% | residual activity [9]: 100% | residual activity [10]: 90% | residual activity [11]: 90% | residual activity [12]: 100% | residual activity [13]: 73% | residual activity [14]: 100% | residual activity [15]: 100% | residual activity [16]: 76% | residual activity [17]: 100% | residual activity [18]: 96% | residual activity [19]: 100% | residual activity [20]: 88% | residual activity [21]: 100% | residual activity [22]: 100% | residual activity [23]: 91% | residual activity [24]: 100% | residual activity [25]: 78% | residual activity [26]: 100% | residual activity [27]: 99% | residual activity [28]: 98% | residual activity [29]: 92% | residual activity [30]: 76% | residual activity [31]: 100% | residual activity [32]: 90% | residual activity [33]: 100% | residual activity [34]: 93% | residual activity [35]: 100% | residual activity [36]: 89% | residual activity [37]: 95% | residual activity [38]: 97% | residual activity [39]: 89% | residual activity [40]: 92% | residual activity [41]: 94% | residual activity [42]: 85% | residual activity [43]: 100% | inhibition [44]: 21.1% | inhibition [45]: 34%
